In ChEMBL document CHEMBL3301361, “Experimental in vitro DMPK and physicochemical data on a set of publicly disclosed compounds”:

Assay: physchem
Details: octan-1-ol/water, pH 7.4, LogD7.4

logD | Structure (SMILES)
3.1 | COc1cccc(C(COCc2cc(C(F)(F)F)cc(C(F)(F)F)c2)N2CCNCC2)c1 (stereo unspecified)
3.05 | CCN1CCN(CC(=O)Nc2ccc(-c3cccc4c(=O)cc(N5CCOCC5)oc34)c3sc4ccccc4c23)CC1
3 | Fc1ccc(C(COCc2cc(C(F)(F)F)cc(C(F)(F)F)c2)N2CCNCC2)cc1 (stereo unspecified)
3.12 | O=S(=O)(NCC(c1ccccc1)N1CCCCCC1)c1cccc(C(F)(F)F)c1 (stereo unspecified)
3.13 | COc1ccc(S(=O)(=O)NCC(c2ccccc2)N2CCCCCC2)cc1 (stereo unspecified)
3 | CC(C)Cn1c(=O)[nH]c(=O)c2c(C(=O)N3CCC3)c(Cc3ccccc3C(F)(F)F)sc21
3 | CCCc1c(OCCCOc2ccc3c(=O)cc(C(=O)O)oc3c2CCC)ccc(C(C)=O)c1O
2.99 | CNc1ccc2ncc(-c3cccc(O)c3)n2n1
3 | COc1c(C#N)cc2ccccc2c1C(=O)N(C)C[C@@H](CCN1CCC(N2CCCNC2=O)CC1)c1ccc(Cl)c(Cl)c1
3.07 | O=C(COCc1cscn1)N1CCN(c2ccc(Cl)cc2Cl)CC1
2.96 | Cc1cc(NC(=O)Nc2ccc(Cl)cc2)n(C)n1
3.1 | CCN(C(=O)Nc1ccccc1)c1ccccc1
2.96 | O=C(Cc1ccccn1)c1ccc(Cl)cc1
3.1 | COc1cnc(-c2ccccn2)nc1Oc1ccc(F)cc1F
2.98 | CC(O)(C(=O)Nc1ccc(S(=O)(=O)c2ccccc2)cc1)C(F)(F)F (stereo unspecified)
3.14 | CCN1CCN(C(=O)c2cc3cc(Cl)ccc3[nH]2)CC1
3.01 | CCOc1ccc(-c2cnc3n2CCCCC3)cc1
3.12 | Nc1c2c(nc3ccc(Br)cc13)N(c1ccccc1)CC2
3.1 | Nc1nc2ccc(-c3cccc(O)c3)cc2s1
2.95 | CCCc1c(OCc2cccc(NC(=O)Cc3ccccc3C(=O)O)c2)ccc(C(C)=O)c1O
3 | O=C1CCOc2nc(C#CC3CCCC3)ccc21
3.1 | O=C1CCOc2nc(OCc3ccccc3)ccc21

logD | Structure (SMILES)
3.1 | CN1CCOc2cc(COC3CCCCC3)cnc21
3.17 | CC[C@H](NC(=O)c1c([S+](C)[O-])c(-c2ccccc2)nc2ccccc12)c1ccccc1 (stereo partly specified)
3.17 | CC[C@H](NC(=O)c1c(S(C)(=O)=O)c(-c2ccccc2)nc2ccccc12)c1ccccc1
3.15 | CC[C@H](NC(=O)c1c(CC[S+](C)[O-])c(-c2ccccc2)nc2ccccc12)c1ccccc1 (stereo partly specified)
3.14 | CC[C@H](NC(=O)c1c([S+](C)[O-])c(-c2cccc(F)c2)nc2ccccc12)c1ccccc1 (stereo partly specified)
3.07 | CC[C@H](NC(=O)c1c([S+](C)[O-])c(-c2ccccc2)nc2cc(Cl)ccc12)c1ccccc1 (stereo partly specified)
3 | O=C(NCc1ccccc1)c1cccnc1Oc1ccccc1
3.1 | COc1cccc(Nc2ncnc3cc(OC)c(OC)cc23)c1
3 | C#CC(C)(C)NC(=O)c1sccc1Oc1ccc(F)cc1[N+](=O)[O-]
3 | FC(F)(F)c1nnc2ccc(N3CCCCC3)nn12
2.97 | CSc1ccc(-c2nc(-c3ccc(F)cc3)c(-c3ccncc3)[nH]2)cc1
3.1 | Cc1ncccc1Oc1ncnc(OC2C3COCC2CN(C(=O)OC(C)C)C3)c1C (stereo unspecified)
3.1 | COc1cc(N2CCN(CCS(C)(=O)=O)CC2)ccc1Nc1ncc(Cl)c(-c2cnc3ccccn23)n1
3 | COc1cc(N2CCN(C(C)=O)CC2)ccc1Nc1nccc(-c2cnc3ccccn23)n1
3.13 | CN(C)c1nc(N[C@H]2CC[C@@H](NC(=O)c3ccc(F)c(F)c3)CC2)nc2ccccc12
2.94 | CCOc1ccc(Oc2ccc(S(=O)(=O)NC(=O)c3cccc(-c4ccc(Cl)c(Cl)c4)c3)cc2)cc1
3.17 | COc1ccc(C(=O)Nc2cc(NC(=O)c3cccc(N(C)C)c3)ccc2C)cc1
3.09 | O=C(Cc1ccccc1)c1ccc(O)cc1O
3.1 | CONC(=O)c1cnc(N2CCC(NC(=O)c3[nH]c(C)c(Cl)c3Cl)CC2)s1
2.96 | CC(=O)N[C@@H]1CC2(CCN(Cc3ccc4[nH]c5ccccc5c4c3)CC2)c2ccccc21
2.96 | CNc1c(Br)cnc2nc(-c3ccc(OCCCN4CCOCC4)cc3)[nH]c12
3.13 | COc1ccc(-c2nc3c(NCCCNC(=O)C4CCCC4)c(C(N)=O)cnc3[nH]2)cc1

logD | Structure (SMILES)
3.1 | Nc1nc2nc(SCc3ccccc3)nc(N)c2s1
3.15 | CN(C)C(=O)N[C@H]1CC[C@H](CCN2CCN(c3ccc(Cl)c(Cl)c3)CC2)CC1
3.01 | Cc1ccc(-c2ncc[nH]2)cc1NC(=O)c1ccc(OCc2ccccn2)cc1
2.97 | Cc1nc(-c2ccc(C)c(NC(=O)c3ccc(OCc4ccccn4)cc3)c2)c[nH]1
3.1 | Cc1ccc(-c2ncc(CN3CCOCC3)s2)cc1NC(=O)c1ccc(OCc2ccccn2)cc1
3 | C[C@@H]1CN(C(=O)OC(C)(C)C)CCN1c1ncc(OCc2ccc(S(C)(=O)=O)cn2)cn1
3 | C[C@@H]1CN(C(=O)OCC(F)(F)F)CCN1c1ncc(OCc2ccncc2C#N)cn1
3 | Cn1cc(C#N)cc1-c1c2c(=O)n(CCO)c(=O)n(CC3CC3)c2nn1Cc1ccnc2ccc(Cl)cc12
3.13 | CCN(CC)CCOc1ccc(N(C)C(=O)c2ccc(-c3ccc(C(F)(F)F)cc3)cc2)cc1OC
2.98 | COc1cc(OC2CCN(C)CC2)c2c(Nc3c(Cl)ccc4c3OCO4)ncnc2c1
3.04 | Cc1cn(C2CCCN(Cc3cccc(Oc4ccccc4)c3)C2)c(=O)[nH]c1=O (stereo unspecified)
3.15 | CC(C)Cn1c(=O)n(C)c(=O)c2c(C(=O)N3C[C@H](O)CO3)c(Cc3ccccc3C(F)(F)F)sc21
3 | Nc1ncccc1NCc1cccc(-c2cccnc2)c1
3.13 | CN(C)S(=O)(=O)c1ccc2c(C(=O)NC[C@@H](O)CN3CCC(Oc4ccc(Cl)c(Cl)c4)CC3)c[nH]c(=O)c2c1
3.15 | O=C(NC[C@@H](O)CN1CCC(Oc2ccc(Cl)c(Cl)c2)CC1)c1c[nH]c(=O)c2c(F)cccc12
3 | Cc1cc(Cl)ccc1OC1CCN(C[C@H](O)CNC(=O)c2c[nH]c(=O)c3c(F)cccc23)CC1
3.15 | O=C(NC[C@@H](O)CN1CCC(Oc2ccc(Cl)c(Cl)c2)CC1)c1c[nH]nc1C1CC1
3.09 | N#Cc1cccc(OC[C@@H](O)CNC2CCN(Cc3ccc(Cl)c(Cl)c3)CC2)c1
3.1 | COc1cc2ncnc(Nc3ccc(F)cc3)c2cc1OC
3.17 | C[S+]([O-])CCN1C(=O)C(NC(=O)c2cc3cc(Cl)sc3[nH]2)Cc2ccccc21 (stereo unspecified)
2.95 | COCCC(NC(=O)C1(N)CCN(c2ncnc3[nH]ccc23)CC1)c1ccc(Cl)cc1 (stereo unspecified)
3.05 | O=C(NC1Cc2ccccc2N(CCO)C1=O)c1cc2cc(Cl)sc2[nH]1 (stereo unspecified)

logD | Structure (SMILES)
3.17 | CC(=O)N[C@@H](C)c1ccc(Nc2ncc3cc(-c4ccncc4)ccc3n2)cc1
3.1 | COCCOc1ccc(Nc2ncc3cc(-c4ccncc4)ccc3n2)cc1
2.98 | COCCC(=O)NC(C)c1ccc(Nc2ncc3cc(-c4ccncc4)ccc3n2)cc1 (stereo unspecified)
3.08 | COCCC(=O)N[C@H](C)c1ccc(Nc2ncc3cc(-c4ccncc4)ccc3n2)cc1
3.05 | COCCC(=O)N[C@@H](C)c1ccc(Nc2ncc3cc(-c4ccncc4)ccc3n2)cc1
3.1 | CC(=O)NC(C)c1ccc(Nc2ncc3cc(-c4ccncc4)ccc3n2)cc1 (stereo unspecified)
3.02 | C[C@@H](NC1=CC(=O)NCC1)c1ccc(Nc2ncc3cc(-c4ccncc4)ccc3n2)cc1
3.11 | COc1cc2nc(Nc3ccc([C@@H](C)NC(C)=O)cc3)ncc2cc1-c1ccncc1
3.17 | c1cn(-c2ccc(Oc3cc(Oc4ccc5c(c4)OCO5)ncn3)cc2)cn1
2.97 | NS(=O)(=O)c1cccc(Nc2nccc(Nc3c(Cl)ccc4c3OCO4)n2)c1
3.1 | COc1ccc(-c2cc(NC(=O)Cc3ccc4ccccc4c3)[nH]n2)cc1OC
3 | COc1cccc([C@@H](C)NCCCc2ccccc2Cl)c1
3.13 | COc1cc2ncnc(Nc3ccc(F)c(Cl)c3)c2cc1OCCCN1CCCC1
3.02 | COc1ccc(-n2sc3ccccc3c2=O)cc1
3.02 | CC(=O)NC[C@H]1CN(c2ccc(N3Cc4ccncc4C3)c(F)c2)C(=O)O1
3.12 | CC(O)(C(=O)Nc1ccc(S(=O)(=O)c2ccc(F)cc2)cc1)C(F)(F)F (stereo unspecified)
3.1 | O=C1NC(=O)c2cc(OCc3ccccc3)ccc21
3.1 | Cc1ccc(NC(=O)c2cccc(N(C)C)c2)cc1NC(=O)c1ccc(OC(C)C)cc1
3.15 | C[C@H](CO)Nc1nc(SCc2cccc(F)c2F)nc2nccnc12
3.12 | COc1ccc(C(=O)Nc2cc(NC(=O)c3cccc(N(C)C)c3)ccc2C)cc1OC
3.05 | CC(C)C(NC(=O)Cn1c(-c2cccnc2)ccc(NC(=O)OCc2ccccc2)c1=O)C(=O)C(F)(F)F (stereo unspecified)
3 | CC(c1ccccc1)N1Cc2ccccc2C1=O (stereo unspecified)

logD | Structure (SMILES)
3 | CNC(=O)c1ccc(Nc2ncc(F)c(-c3cnc(C)n3C(C)C)n2)cc1
2.95 | CNC(=O)c1ccc(Nc2nccc(-c3cnc(C)n3C(C)C)n2)cc1F
3.14 | Cc1ncc(-c2nc(Nc3ccc(C(N)=O)c(F)c3)ncc2F)n1C(C)C
3.12 | O=c1oc2ccc(O)cc2cc1-c1ccccc1
3.02 | COc1ccc(N(C(=O)c2ccccc2)C(C)C(=O)NC2CCCC2)c(OC)c1 (stereo unspecified)
2.95 | COc1cc2ncc(C(N)=O)c(Nc3ccc(F)cc3F)c2cc1OC
2.95 | Cc1oc2cc(O)ccc2c(=O)c1-c1ccccc1
2.96 | COC(=O)CCCC(=O)Nc1ccc2c(c1)-c1ccccc1C(=O)C2=O
3.11 | Cc1ccc(NC(=O)c2cccc(C(F)(F)F)c2)cc1NC(=O)c1cccnc1
3.1 | O=C1C(=O)c2cc(-c3ccsc3)ccc2-c2ccccc21
3.16 | COc1cc2ncc(C(N)=O)c(Nc3cc(C)ccc3F)c2cc1OC
3.12 | O=C(CC1CCN(Cc2ccn(-c3ccc(C(F)(F)F)cc3)c2)CC1)NC(c1ccc(F)cc1)c1c[nH]c(=O)c(Cl)c1 (stereo unspecified)
3.04 | O=C(CC1CCN(Cc2ccn(-c3ccc(C(F)(F)F)cc3)c2)CC1)N(CCCO)Cc1ccc(F)cc1
3.04 | O=C(CC1CCN(Cc2ccn(-c3ccc(C(F)(F)F)cc3)c2)CC1)NC(c1ccc(F)cc1)c1ccc(=O)[nH]c1 (stereo unspecified)
3.11 | CCNc1nc(C#N)nc(Nc2ccccc2)n1
3.1 | Oc1ccc(-c2ccc3cc(O)ccc3n2)cc1
3 | O=c1oc2ccccc2cc1-c1ccc(O)cc1
3.07 | C=CCNS(=O)(=O)c1ccc(NC(=O)[C@@](C)(O)C(F)(F)F)c(Cl)c1
